Measured values taken from BindingDB's records for doi:10.1021/jm500763m (Beijing Institute of Pharmacology & Toxicology, 2014).
Square brackets hold non-standard residues; d marks the D form. Peptide text beside a SMILES is read from it. * marks the point of attachment. X1 = C=CCOC(=O)[C@]12CC[C@@H](C(=C)C)[C@@H]1[C@H]1CC[C@@H]3[C@@]4(C)CC[C@H](OC(=O)CCc5cn(CC(=O)*)nn5)C(C)(C)[C@@H]4CC[C@@]3(C)[C@]1(C)CC2; X8 = C[C@H]1[C@H](C)CC[C@]2(C(=O)O)CC[C@]3(C)C(=CC[C@@H]4[C@@]5(C)CC[C@H](OC(=O)CCc6cn(CC(=O)*)nn6)C(C)(C)[C@@H]5CC[C@]43C)[C@H]12; X7 = C[C@H]1[C@H](C)CC[C@]2(C(=O)OCc3cn(CC(=O)*)nn3)CC[C@]3(C)C(=CC[C@@H]4[C@@]5(C)CC[C@H](O)C(C)(C)[C@@H]5CC[C@]43C)[C@H]12; X10 = CC1(C)CC[C@]2(C(=O)OCc3cn(CC(=O)*)nn3)CC[C@]3(C)C(=CC[C@@H]4[C@@]5(C)CC[C@H](O)C(C)(C)[C@@H]5CC[C@]43C)[C@@H]2C1; X11 = CCCc1cn(CC(=O)*)nn1; βAla = NCCC(=O)O

Legend:
[1] = Inhibition of HIV1 gp41-induced cell-cell fusion between viral envelope expressing human HL2/3 cells to CD4/CCR5 receptor expressing TZM-bl cells after 6 to 8 hrs by luciferase assay
[2] = Inhibition of HIV1 gp41-induced cell-cell fusion between viral envelope expressing human HL2/3 cells to CD4/CCR5 receptor expressing TZM-bl cells compound preincubated for 1 hr measured after 48 hrs by prime/wash assay
[3] = Inhibition of HIV1 gp41-induced cell-cell fusion between viral envelope expressing human HL2/3 cells to CD4/CCR5 receptor expressing TZM-bl cells compound preincubated for 1 hr followed by wash out measured after 48 hrs by prime/wash assay

Compound | EC50 [1] | EC50 [2] | EC50 [3]
C=CCOC(=O)[C@]12CC[C@@H](C(=C)C)[C@@H]1[C@H]1CC[C@@H]3[C@@]4(C)CC[C@H](OC(=O)CCc5cn(CC(=O)NCCCC[C@H](NC(=O)CCNC(=O)[C@H](CC(C)C)NC(=O)[C@H](CC(C)C)NC(=O)[C@H](CCC(=O)O)NC(=O)[C@H](CCC(N)=O)NC(=O)[C@H](CCC(=O)O)NC(=O)[C@H](CC(N)=O)NC(=O)[C@H](CCCCN)NC(=O)[C@H](CCC(=O)O)NC(=O)[C@H](CCC(N)=O)NC(=O)[C@H](CCC(N)=O)NC(=O)[C@H](CC(N)=O)NC(=O)[C@H](CCC(N)=O)NC(=O)[C@H](CO)NC(=O)[C@H](CCC(=O)O)NC(=O)[C@H](CCC(=O)O)NC(=O)[C@@H](NC(=O)[C@H](CC(C)C)NC(=O)[C@H](CO)NC(=O)[C@H](Cc6cnc[nH]6)NC(=O)[C@@H](NC(=O)[C@H](CC(C)C)NC(=O)[C@H](CO)NC(=O)[C@@H](NC(=O)[C@H](Cc6ccc(O)cc6)NC(=O)[C@H](CC(N)=O)NC(=O)[C@H](CC(N)=O)NC(C)=O)[C@@H](C)O)[C@@H](C)CC)[C@@H](C)CC)C(N)=O)nn5)C(C)(C)[C@@H]4CC[C@@]3(C)[C@]1(C)CC2 (Ac-NNYTSLIHSLIEESQNQQEKNEQELL[βAla]K(X1)-NH2) | 3.9 nM | 13 nM | 
CC[C@H](C)[C@H](NC(=O)[C@H](CC(C)C)NC(=O)[C@H](CO)NC(=O)[C@H](Cc1cnc[nH]1)NC(=O)[C@@H](NC(=O)[C@H](CC(C)C)NC(=O)[C@H](CO)NC(=O)[C@@H](NC(=O)[C@H](Cc1ccc(O)cc1)NC(=O)[C@H](CC(N)=O)NC(=O)[C@H](CC(N)=O)NC(=O)CCNC(=O)Cn1cc(COC(=O)[C@]23CC[C@@H](C)[C@H](C)[C@H]2C2=CC[C@@H]4[C@@]5(C)CC[C@H](O)C(C)(C)[C@@H]5CC[C@@]4(C)[C@]2(C)CC3)nn1)[C@@H](C)O)[C@@H](C)CC)C(=O)N[C@@H](CCC(=O)O)C(=O)N[C@@H](CCC(=O)O)C(=O)N[C@@H](CO)C(=O)N[C@@H](CCC(N)=O)C(=O)N[C@@H](CC(N)=O)C(=O)N[C@@H](CCC(N)=O)C(=O)N[C@@H](CCC(N)=O)C(=O)N[C@@H](CCC(=O)O)C(=O)N[C@@H](CCCCN)C(=O)N[C@@H](CC(N)=O)C(=O)N[C@@H](CCC(=O)O)C(=O)N[C@@H](CCC(N)=O)C(=O)N[C@@H](CCC(=O)O)C(=O)N[C@@H](CC(C)C)C(=O)N[C@@H](CC(C)C)C(N)=O ({X7-βAla}-NNYTSLIHSLIEESQNQQEKNEQELL-NH2) | 145 nM |  | 
CC[C@H](C)[C@H](NC(=O)[C@H](CC(C)C)NC(=O)[C@H](CO)NC(=O)[C@H](Cc1cnc[nH]1)NC(=O)[C@@H](NC(=O)[C@H](CC(C)C)NC(=O)[C@H](CO)NC(=O)[C@@H](NC(=O)[C@H](Cc1ccc(O)cc1)NC(=O)[C@H](CC(N)=O)NC(=O)[C@H](CC(N)=O)NC(=O)CCNC(=O)Cn1cc(CCC(=O)O[C@H]2CC[C@]3(C)[C@H]4CC=C5[C@@H]6[C@@H](C)[C@H](C)CC[C@]6(C(=O)O)CC[C@@]5(C)[C@]4(C)CC[C@H]3C2(C)C)nn1)[C@@H](C)O)[C@@H](C)CC)C(=O)N[C@@H](CCC(=O)O)C(=O)N[C@@H](CCC(=O)O)C(=O)N[C@@H](CO)C(=O)N[C@@H](CCC(N)=O)C(=O)N[C@@H](CC(N)=O)C(=O)N[C@@H](CCC(N)=O)C(=O)N[C@@H](CCC(N)=O)C(=O)N[C@@H](CCC(=O)O)C(=O)N[C@@H](CCCCN)C(=O)N[C@@H](CC(N)=O)C(=O)N[C@@H](CCC(=O)O)C(=O)N[C@@H](CCC(N)=O)C(=O)N[C@@H](CCC(=O)O)C(=O)N[C@@H](CC(C)C)C(=O)N[C@@H](CC(C)C)C(N)=O ({X8-βAla}-NNYTSLIHSLIEESQNQQEKNEQELL-NH2) | 52 nM |  | 
CC[C@H](C)[C@H](NC(=O)[C@H](CC(C)C)NC(=O)[C@H](CO)NC(=O)[C@H](Cc1cnc[nH]1)NC(=O)[C@@H](NC(=O)[C@H](CC(C)C)NC(=O)[C@H](CO)NC(=O)[C@@H](NC(=O)[C@H](Cc1ccc(O)cc1)NC(=O)[C@H](CC(N)=O)NC(=O)[C@H](CC(N)=O)NC(=O)CCNC(=O)Cn1cc(COC(=O)[C@]23CCC(C)(C)C[C@H]2C2=CC[C@@H]4[C@@]5(C)CC[C@H](O)C(C)(C)[C@@H]5CC[C@@]4(C)[C@]2(C)CC3)nn1)[C@@H](C)O)[C@@H](C)CC)C(=O)N[C@@H](CCC(=O)O)C(=O)N[C@@H](CCC(=O)O)C(=O)N[C@@H](CO)C(=O)N[C@@H](CCC(N)=O)C(=O)N[C@@H](CC(N)=O)C(=O)N[C@@H](CCC(N)=O)C(=O)N[C@@H](CCC(N)=O)C(=O)N[C@@H](CCC(=O)O)C(=O)N[C@@H](CCCCN)C(=O)N[C@@H](CC(N)=O)C(=O)N[C@@H](CCC(=O)O)C(=O)N[C@@H](CCC(N)=O)C(=O)N[C@@H](CCC(=O)O)C(=O)N[C@@H](CC(C)C)C(=O)N[C@@H](CC(C)C)C(N)=O ({X10-βAla}-NNYTSLIHSLIEESQNQQEKNEQELL-NH2) | 176 nM |  | 
CCCc1cn(CC(=O)NCCC(=O)N[C@@H](CC(N)=O)C(=O)N[C@@H](CC(N)=O)C(=O)N[C@@H](Cc2ccc(O)cc2)C(=O)N[C@H](C(=O)N[C@@H](CO)C(=O)N[C@@H](CC(C)C)C(=O)N[C@H](C(=O)N[C@@H](Cc2cnc[nH]2)C(=O)N[C@@H](CO)C(=O)N[C@@H](CC(C)C)C(=O)N[C@H](C(=O)N[C@@H](CCC(=O)O)C(=O)N[C@@H](CCC(=O)O)C(=O)N[C@@H](CO)C(=O)N[C@@H](CCC(N)=O)C(=O)N[C@@H](CC(N)=O)C(=O)N[C@@H](CCC(N)=O)C(=O)N[C@@H](CCC(N)=O)C(=O)N[C@@H](CCC(=O)O)C(=O)N[C@@H](CCCCN)C(=O)N[C@@H](CC(N)=O)C(=O)N[C@@H](CCC(=O)O)C(=O)N[C@@H](CCC(N)=O)C(=O)N[C@@H](CCC(=O)O)C(=O)N[C@@H](CC(C)C)C(=O)N[C@@H](CC(C)C)C(N)=O)[C@@H](C)CC)[C@@H](C)CC)[C@@H](C)O)nn1 ({X11-βAla}-NNYTSLIHSLIEESQNQQEKNEQELL-NH2) | 3580 nM |  | 
C[C@H]1[C@H](C)CC[C@]2(C(=O)O)CC[C@]3(C)C(=CC[C@@H]4[C@@]5(C)CC[C@H](O)C(C)(C)[C@@H]5CC[C@]43C)[C@H]12 [3beta-hydroxyurs-12-en-28-oic acid] | > 100000 nM |  | 
CC1(C)CC[C@]2(C(=O)O)CC[C@]3(C)C(=CC[C@@H]4[C@@]5(C)CC[C@H](O)C(C)(C)[C@@H]5CC[C@]43C)[C@@H]2C1 [Oleanolic acid (OA)(Compound 1)] | > 100000 nM |  | 
enfuvirtide | 10 nM | 14 nM | 542 nM
